Test results published in patent US20230099344A1, “COMPOUNDS AND METHODS FOR THE TARGETED DEGRADATION OF IRAK-4” (Arvinas Operations, Inc., priority 2021, published 2023).

What was measured:
Format in all cases: cell-based
IL6 [1] = experiment: R848 stimulated IL6 inhibition assay in PBMC; conditions: human PBMCs, R848 stimulation, compound overnight, IL6 by MSD after 24 hrs; for Dmax: Homo sapiens, 24 h, read-out: R848 stim IL6 inhibition Dmax; for IC50: read-out: R848 stim IL6 inhibition IC50
Experimental: (§1) IL-1β, LPS, or R848 Stimulated IL6 Inhibition and IL-1β Stimulated IL8 Inhibition Assay
(§2) Human PBMC cells were seeded at 2.0×10^6 cells/mL, treated with compound overnight, and dosed with the EC50 concentration of each stimulant (either IL-1B. LPS, or R848) was determined for each donor. After 24 hrs, media was collected and analyzed by MSD for IL6 and/or IL8 levels.

IRAK-4 = target: T1, IRAK-4 (Homo sapiens, UniProt Q9NWZ3); experiment: IRAK-4 ELISA, PBMC degradation; parameters: endogenous in cells; host or cells: PBMC; conditions: treated overnight
T1 sequence (Q9NWZ3 1-460): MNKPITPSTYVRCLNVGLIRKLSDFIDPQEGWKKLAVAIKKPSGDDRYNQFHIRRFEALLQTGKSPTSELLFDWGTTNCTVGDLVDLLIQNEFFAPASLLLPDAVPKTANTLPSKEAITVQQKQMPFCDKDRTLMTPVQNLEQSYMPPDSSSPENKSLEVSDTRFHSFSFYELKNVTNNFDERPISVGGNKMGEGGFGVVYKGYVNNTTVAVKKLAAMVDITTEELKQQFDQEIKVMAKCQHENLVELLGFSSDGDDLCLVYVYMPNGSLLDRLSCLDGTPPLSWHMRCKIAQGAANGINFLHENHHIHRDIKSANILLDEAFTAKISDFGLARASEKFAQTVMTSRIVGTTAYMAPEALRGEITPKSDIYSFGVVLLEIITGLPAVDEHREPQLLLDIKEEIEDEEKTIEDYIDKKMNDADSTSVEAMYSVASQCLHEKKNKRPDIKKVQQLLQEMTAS
How it was run: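 Readout: IRAK-4 protein level in cell lysate, sandwich ELISA. Cells: OCI-Ly10 at 1×10^6/ml or PBMC at 2×10^6/ml, compound added same day, overnight incubation.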

IL6 [2] = experiment: LPS stimulated IL6 inhibition assay in PBMC; conditions: human PBMCs, LPS stimulation, compound overnight, IL6 by MSD after 24 hrs; for Dmax: read-out: LPS Stim IL6 inhibition Dmax; for IC50: read-out: LPS stim IL6 inhibition IC50
Experimental: as §1, §2

Row | SMILES | IC50 (IL6 [1]; PBMC) | DC50 (IRAK-4) | Dmax (IRAK-4) | PBMC DC90 (IRAK-4) | IC50 (IL6 [2]; Homo sapiens, PBMC, 24 h) | IC50 (IL6 [1]) | PBMC Dmax (IRAK-4) | IC50 (IL6 [2]) | Dmax (IL6 [1]; PBMC) | Dmax (IL6 [2]; Homo sapiens, PBMC, 24 h) | R848 stim IL6 inhibition Dmax (IL6 [1]) | LPS Stim IL6 inhibition Dmax (IL6 [2])
1 | C=C(CN1CCC(N2Cc3cc(NC(=O)c4cnn5cccnc45)c(OC(C)C)cc3C2=O)CC1)C1CCN(c2ccc3c(c2)C(=O)N(C2CCC(=O)NC2=O)C3=O)CC1 (centres unmarked) [Example 110] | 10 to 50 nM | 1 to 5 nM | ≥ 90% | B (B represents a DC90 value ≥10.0 nM and <25.0 nM) | 10 to 50 nM |  |  |  | ≥ 90% | 80 to 90% |  | 
2 | O=C1CCC(N2C(=O)c3ccc(N4CC(F)(CN5CCC(N6Cc7cc(NC(=O)c8cnn9cccnc89)c(N8CCC(N9CCC9)CC8)cc7C6=O)CC5)C4)cc3C2=O)C(=O)N1 (centres unmarked) [Example 116] | < 10 nM | 1 to 5 nM | ≥ 90% | B (B represents a DC90 value ≥10.0 nM and <25.0 nM) | < 10 nM |  |  |  | ≥ 90% | 80 to 90% |  | 
3 | O=C1CCC(N2Cc3cc(N4CC(F)(CN5CCC(N6Cc7cc(NC(=O)c8cnn9cccnc89)c(N8CCC(N9CCC9)CC8)cc7C6=O)CC5)C4)ccc3C2=O)C(=O)N1 (centres unmarked) [Example 117] | 10 to 50 nM | 1 to 5 nM | ≥ 90% | B (B represents a DC90 value ≥10.0 nM and <25.0 nM) | 10 to 50 nM |  |  |  | 80 to 90% | 70 to 80% |  | 
4 | O=C1CCC(N2C(=O)c3ccc(N4CCC(CN5CCC(n6cc7cc(NC(=O)c8cnn9cccnc89)c(N8CCC(N9CCC9)CC8)cc7n6)CC5)CC4)cc3C2=O)C(=O)N1 (centres unmarked) [Example 150] | 10 to 50 nM | 1 to 5 nM | 80 to 90% | C (C represents a DC90 value ≥25.0 nM and <50 nM) | 50 to 100 nM |  |  |  | ≥ 90% | 80 to 90% |  | 
5 | O=C1CCC(N2C(=O)c3ccc(N4CCC(CN5CCC(n6cc7cc(NC(=O)c8cnn9cccnc89)c(N8CCN(CC(F)F)CC8)cc7n6)CC5)CC4)cc3C2=O)C(=O)N1 (centres unmarked) [Example 159] | 10 to 50 nM | 1 to 5 nM | ≥ 90% | A (A represents a DC90 value <10.0 nM) | 10 to 50 nM |  |  |  | ≥ 90% | 70 to 80% |  | 
6 | O=C1CCC(N2C(=O)c3ccc(N4CC(F)(CN5CCC(n6cc7cc(NC(=O)c8cnn9cccnc89)c(N8CCOCC8)cc7n6)CC5)C4)cc3C2=O)C(=O)N1 (centres unmarked) [Example 218] | < 10 nM | 5 to 10 nM | 80 to 90% | D (D represents a DC90 value ≥50 nM) | 10 to 50 nM |  |  |  | ≥ 90% | 70 to 80% |  | 
7 | CC1(CN2CCC(n3cc4cc(NC(=O)c5cnn6cccnc56)c(OCC5CC5)cc4n3)CC2)CN(c2cc3c(cc2F)C(=O)N(C2CCC(=O)NC2=O)C3=O)C1 (centres unmarked) [Example 222] | 50 to 100 nM | ≥ 10 nM | 70 to 80% | D (D represents a DC90 value ≥50 nM) | 50 to 100 nM |  |  |  | ≥ 90% | 70 to 80% |  | 
8 | O=C1CCC(N2C(=O)c3ccc(N4CC[C@@H](N5CCC(n6cc7cc(NC(=O)c8cnn9cccnc89)c(OCC8CC8)cc7n6)CC5)C4)cc3C2=O)C(=O)N1 (some centres unmarked) [Example 224] | 10 to 50 nM | 1 to 5 nM | 80 to 90% | B (B represents a DC90 value ≥10.0 nM and <25.0 nM) | 10 to 50 nM |  |  |  | ≥ 90% | 80 to 90% |  | 
9 | O=C1CCC(N2C(=O)c3ccc(N4CC(F)(CN5CCC(n6cc7cc(NC(=O)c8cnn9cccnc89)c(OCC(F)F)cc7n6)CC5)C4)cc3C2=O)C(=O)N1 (centres unmarked) [Example 231] | 10 to 50 nM | 1 to 5 nM | 80 to 90% | A (A represents a DC90 value <10.0 nM) | 10 to 50 nM |  |  |  | ≥ 90% | 80 to 90% |  | 
10 | COc1cc(N2CC(F)(CN3CCC(n4cc5cc(NC(=O)c6cnn7cccnc67)c(OC(C)C)nc5n4)CC3)C2)cc2c1C(=O)N(C1CCC(=O)NC1=O)C2=O (centres unmarked) [Example 241] | 10 to 50 nM | 1 to 5 nM | 70 to 80% | B (B represents a DC90 value ≥10.0 nM and <25.0 nM) | ≥ 100 nM |  |  |  | 80 to 90% |  |  | 
11 | O=C1CCC(N2C(=O)c3ccc(N4CC(F)(CN5CCC(n6cc7cc(NC(=O)c8cnn9cccnc89)c(N8CCC(N9CCC9)CC8)cc7n6)CC5)C4)cc3C2=O)C(=O)N1 (centres unmarked) [Example 243] | 10 to 50 nM | 5 to 10 nM | 80 to 90% | D (D represents a DC90 value ≥50 nM) | 10 to 50 nM |  |  |  | ≥ 90% | < 70% |  | 
12 | O=C1CCC(N2Cc3ccc(N4CC(F)(CN5CCC(n6cc7cc(NC(=O)c8cnn9cccnc89)c(OCC8CC8)cc7n6)CC5)C4)cc3C2=O)C(=O)N1 (centres unmarked) [Example 245] | < 10 nM | 1 to 5 nM | 70 to 80% | A (A represents a DC90 value <10.0 nM) | 10 to 50 nM |  |  |  | ≥ 90% | 80 to 90% |  | 

More lines, main results first:

Row | IC50 (IL6 [1]; PBMC) | DC50 (IRAK-4) | Dmax (IRAK-4) | PBMC DC90 (IRAK-4) | IC50 (IL6 [2]; Homo sapiens, PBMC, 24 h) | IC50 (IL6 [1]) | PBMC Dmax (IRAK-4) | IC50 (IL6 [2]) | SMILES | Dmax (IL6 [1]; PBMC) | Dmax (IL6 [2]; Homo sapiens, PBMC, 24 h) | R848 stim IL6 inhibition Dmax (IL6 [1]) | LPS Stim IL6 inhibition Dmax (IL6 [2])
13 | 10 to 50 nM | < 1 nM | 80 to 90% | A (A represents a DC90 value <10.0 nM) | 10 to 50 nM |  |  |  | CC(C)Oc1cc2c(cc1NC(=O)c1cnn3cccnc13)CN(C1CCN(C(C)(C)C3CCN(c4ccc5c(c4)CN(C4CCC(=O)NC4=O)C5=O)CC3)CC1)C2=O (centres unmarked) [Example 111] | ≥ 90% | ≥ 90% |  | 
14 | < 10 nM | < 1 nM | 80 to 90% | A (A represents a DC90 value <10.0 nM) | 10 to 50 nM |  |  |  | O=C1CCC(N2Cc3cc(N4CCC(CN5CCC(n6cc7cc(NC(=O)c8cnn9cccnc89)c(OCC(F)F)cc7n6)CC5)CC4)ccc3C2=O)C(=O)N1 (centres unmarked) [Example 149] | ≥ 90% | 70 to 80% |  | 
15 | < 10 nM | < 1 nM | 80 to 90% | A (A represents a DC90 value <10.0 nM) | < 10 nM |  |  |  | O=C1CCC(N2Cc3c(ccc(N4CCC(CN5CCC(n6cc7cc(NC(=O)c8cnn9cccnc89)c(OCC8CC8)cc7n6)CC5)CC4)c3F)C2=O)C(=O)N1 (centres unmarked) [Example 153] | 80 to 90% | ≥ 90% |  | 
16 | < 10 nM | < 1 nM | 80 to 90% | A (A represents a DC90 value <10.0 nM) | < 10 nM |  |  |  | O=C1CCC(N2Cc3c(ccc(N4CCC(CN5CCC(n6cc7cc(NC(=O)c8cnn9cccnc89)c(OCC(F)F)cc7n6)CC5)CC4)c3F)C2=O)C(=O)N1 (centres unmarked) [Example 154] | ≥ 90% | 80 to 90% |  | 
17 | < 10 nM | < 1 nM | ≥ 90% | A (A represents a DC90 value <10.0 nM) | < 10 nM |  |  |  | O=C1CCC(N2Cc3ccc(N4CCC(CN5CCC(n6cc7cc(NC(=O)c8cnn9cccnc89)c(OCC8CC8)cc7n6)CC5)CC4)cc3C2=O)C(=O)N1 (centres unmarked) [Example 155] | ≥ 90% | 80 to 90% |  | 
18 |  | < 1 nM |  | A (A represents a DC90 value <10.0 nM) |  | < 10 nM | A (A represents a Dmax value ≥90) | < 10 nM | O=C1CCC(N2Cc3cc(N4CCC(CN5CCC(n6cc7cc(NC(=O)c8cnn9cccnc89)c(OCC(F)F)cc7n6)CC5)CC4)ccc3C2=O)C(=O)N1 (centres unmarked) [Example 156] |  |  | A (A represents a Ymax value ≥90) | C (C represents a Ymax value ≥70 and <80)
19 | 10 to 50 nM | < 1 nM | ≥ 90% | A (A represents a DC90 value <10.0 nM) | 10 to 50 nM |  |  |  | O=C1CCC(N2Cc3cc(N4CCC(CN5CCC(n6cc7cc(NC(=O)c8cnn9cccnc89)c(N8CCN(CC(F)F)CC8)cc7n6)CC5)CC4)ccc3C2=O)C(=O)N1 (centres unmarked) [Example 157] | ≥ 90% | 70 to 80% |  | 
20 | < 10 nM | < 1 nM | ≥ 90% | A (A represents a DC90 value <10.0 nM) | < 10 nM |  |  |  | O=C1CCC(N2Cc3c(ccc(N4CCC(CN5CCC(n6cc7cc(NC(=O)c8cnn9cccnc89)c(N8CCN(CC(F)F)CC8)cc7n6)CC5)CC4)c3F)C2=O)C(=O)N1 (centres unmarked) [Example 158] | ≥ 90% | 80 to 90% |  | 
21 | 10 to 50 nM | < 1 nM | 80 to 90% | A (A represents a DC90 value <10.0 nM) | 50 to 100 nM |  |  |  | COc1cc(N2CC(F)(CN3CCC(n4cc5cc(NC(=O)c6cnn7cccnc67)c(OCC6CC6)cc5n4)CC3)C2)cc2c1C(=O)N(C1CCC(=O)NC1=O)C2=O (centres unmarked) [Example 240] | ≥ 90% | 80 to 90% |  | 
